The values below come from patent US8247441B2, “Chromene compounds, a process for their preparation and pharmaceutical compositions containing them” (Les Laboratoires Servier, priority 2009, dated 2012).

Assay [1] has as its target human D2L dopaminergic receptor (Homo sapiens, UniProt P14416). Briefly: Affinity for human D2L receptors stably expressed in CHO cells, [3H]-spiperone competition. The format is binding. To be noted: CHO cell membranes, 0.5 nM [3H]-spiperone, 1 hour at 30° C.; read-out: Affinity (pKi) hD2L (converted). How it is done: (§1) Determination of Affinity for Human D3, D2S and D2L Receptors Stably Expressed in CHO Cells
(§2) The various cell lines are cultured to confluence and then the cells are detached and are homogenised using a Polytron in a Tris-HCl buffer (50 mM, pH 7.4) containing 5 mM MgCl2. The cell debris is then centrifuged (15 minutes at 4° C.) and the sediment is taken up in an appropriate volume of HEPES buffer (20 mM) containing 150 mM NaCl and is frozen at −80° C. On the day of the experiment, the membranes are taken up in incubation buffer containing 50 mM Tris (pH 7.4), 120 mM NaCl, 5 mM KCl, 2 mM CaCl2 and 5 mM MgCl2. […] The non-specific binding is determined using 10 μM raclopride. At the end of the incubation period, the samples are filtered through Unifilter GF/B type filters pre-treated with PEI (0.1%) and washed several times with Tris-HCl filtration buffer (50 mM, pH 7.4) containing 120 mM NaCl. The radioactivity retained on the filters is counted after addition of scintillation liquid, with the aid of a scintillation counter. […] The results are expressed in terms of pKi=−log Ki.

Assay [2] has as its target human D2S dopaminergic receptor (Homo sapiens, UniProt P14416). Description: Affinity for human D2S receptors stably expressed in CHO cells, [3H]-spiperone competition. The format is binding. To be noted: CHO cell membranes, 0.5 nM [3H]-spiperone, 1 hour at 30° C.; read-out: Affinity (pKi) hD2S (converted). The procedure:
as §1, §2

The target of assay [3] is human D3 dopaminergic receptor (Homo sapiens, UniProt P35462). Briefly: Affinity for human D3 receptors stably expressed in CHO cells, [3H]-spiperone competition. To be noted: CHO cell membranes, 0.5 nM [3H]-spiperone, 1 hour at 30° C.; read-out: Affinity (pKi) hD3 (converted). The format is binding. The procedure: as §1, §2
Chain of human D3 dopaminergic receptor (P35462 whole entry): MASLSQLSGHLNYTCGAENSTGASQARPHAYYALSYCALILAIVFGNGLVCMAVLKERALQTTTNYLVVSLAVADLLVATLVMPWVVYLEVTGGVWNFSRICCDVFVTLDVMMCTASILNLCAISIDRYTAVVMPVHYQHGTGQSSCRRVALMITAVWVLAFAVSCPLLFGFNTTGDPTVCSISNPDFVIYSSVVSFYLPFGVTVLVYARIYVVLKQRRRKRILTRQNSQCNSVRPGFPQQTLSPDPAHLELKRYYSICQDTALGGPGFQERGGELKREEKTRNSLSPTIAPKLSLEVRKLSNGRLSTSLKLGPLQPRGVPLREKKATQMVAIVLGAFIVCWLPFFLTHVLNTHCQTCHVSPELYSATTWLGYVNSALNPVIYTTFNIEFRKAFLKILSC
For a further assay, the system named is D3/D2 receptor. Briefly: Inhibition of hypothermia induced by the dopaminergic agonist PD128,907. The format is in vivo, rat. To be noted: for Δ (° C.) ± S.E.M.s: PD128,907 0.63 mg/kg s.c. at T0, rectal temperature 30 min later vs baseline; for ID50 (Inhibitory Dose50): inhibition of hypothermia induced by PD128,907 0.63 mg/kg s.c. How it is done:
Inhibition of Induction of Hypothermia Induced by the Dopaminergic Agonist PD128,907
In male rats of the Wistar strain, the baseline (rectal) temperature is measured and then the compound under test or the vehicle is administered by the oral route. Sixty minutes later, PD128,907 (0.63 mg/kg, s.c.), a D3/D2 dopaminergic agonist, is injected. Thirty minutes later, the body temperature is re-determined and the difference (Δ) from the baseline temperature is calculated.

The mark [4] stands for this setting: male Wistar rats, compound 0.04 mg/kg p.o. at T-60 min.
The mark [5] stands for this setting: male Wistar rats, compound 0.16 mg/kg p.o. at T-60 min.
Setting [6] is: male Wistar rats, compound 0.63 mg/kg p.o. at T-60 min.
[7] abbreviates: male Wistar rats, compound 2.5 mg/kg p.o. at T-60 min.
[8] abbreviates: male Wistar rats, compound 10.0 mg/kg p.o. at T-60 min.

Chain of human D2L dopaminergic receptor (P14416 whole entry): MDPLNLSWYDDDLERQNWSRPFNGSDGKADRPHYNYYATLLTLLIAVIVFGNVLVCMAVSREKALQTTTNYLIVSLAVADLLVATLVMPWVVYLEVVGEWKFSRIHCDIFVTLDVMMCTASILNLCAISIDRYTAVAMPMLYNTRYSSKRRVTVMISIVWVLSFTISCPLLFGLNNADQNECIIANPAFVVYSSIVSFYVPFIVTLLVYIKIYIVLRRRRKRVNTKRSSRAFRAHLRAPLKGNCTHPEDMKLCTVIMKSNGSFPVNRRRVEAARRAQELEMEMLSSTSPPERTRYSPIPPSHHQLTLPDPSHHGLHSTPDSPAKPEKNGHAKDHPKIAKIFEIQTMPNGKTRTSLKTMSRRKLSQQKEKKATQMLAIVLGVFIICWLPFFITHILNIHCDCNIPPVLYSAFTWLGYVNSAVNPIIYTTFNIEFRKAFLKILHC
Chain of human D2S dopaminergic receptor (P14416 1-414 isoform P14416-2): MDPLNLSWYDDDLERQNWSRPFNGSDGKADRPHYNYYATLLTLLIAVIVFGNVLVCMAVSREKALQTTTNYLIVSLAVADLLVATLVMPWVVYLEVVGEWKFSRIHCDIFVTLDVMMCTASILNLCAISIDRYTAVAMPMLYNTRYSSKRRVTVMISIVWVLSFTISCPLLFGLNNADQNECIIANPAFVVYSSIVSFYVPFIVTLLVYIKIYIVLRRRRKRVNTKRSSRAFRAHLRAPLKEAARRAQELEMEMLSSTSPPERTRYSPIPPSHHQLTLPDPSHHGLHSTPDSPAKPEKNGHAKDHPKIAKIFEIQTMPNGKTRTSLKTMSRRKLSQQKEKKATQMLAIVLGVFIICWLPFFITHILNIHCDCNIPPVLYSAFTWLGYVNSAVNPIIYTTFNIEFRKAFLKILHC

As to `CC(=O)N[C@H]1CC[C@H](CCN2C[C@H]3COc4ccc(C#N)cc4[C@@H]3C2)CC1.Cl` [Example 2, N-(trans-4-{2-[(3aS,9bR)-8-cyano-1,3a,4,9b-tetrahydrochromeno[3,4-c]pyrrol-2(3H)-yl]ethyl}cyclohexyl)acetamide hydrochloride], the Ki is 100 nM in assay [1], 117 nM in assay [2] and 2 nM in assay [3]. The “Δ (° C.) ± S.E.M.s” value with D3/D2 receptor (setting [4]) is −1.73 ± 0.26 °C; with D3/D2 receptor (setting [5]) it was −1.33 ± 0.11 °C; with D3/D2 receptor (setting [6]) it was −0.97 ± 0.28 °C; with D3/D2 receptor (setting [7]), −0.4 ± 0.13 °C; with D3/D2 receptor (setting [8]), “+0.1 ± 0.33 °C”. In addition, the “ID50 (Inhibitory Dose50)” value in the assay with D3/D2 receptor (male Wistar rats) is given as 1.33 mg/kg, p.o.

Consider `Cl.N#Cc1ccc2c(c1)[C@@H]1CN(CC[C@H]3CC[C@H](NC(=O)C4CCC4)CC3)C[C@H]1CO2` [Example 3, N-(trans-4-{2-[(3aS,9bR)-8-cyano-1,3a,4,9b-tetrahydrochromeno[3,4-c]pyrrol-2(3H)-yl]ethyl}cyclohexyl)cyclobutanecarboxamide hydrochloride], for which the Ki in assay [1] was 50.1 nM; in assay [2], 56.2 nM; in assay [3] it was 1.86 nM. Also, the “Blocking of PD 128,907-induced hypothermia” value in the assay with D3/D2 receptor (male Wistar rats, oral route) is reported as “blocked in dose-dependent manner”. For the same molecule, the “Δ (° C.) ± S.E.M.s” value was −1.65 ± 0.09 °C in the assay with D3/D2 receptor (setting [4]); −1.62 ± 0.07 °C with D3/D2 receptor (setting [5]); −0.83 ± 0.20 °C with D3/D2 receptor (setting [6]); −0.33 ± 0.16 °C in the assay with D3/D2 receptor (setting [7]); “+0.35 ± 0.18 °C” with D3/D2 receptor (setting [8]). Moreover, the “ID50 (Inhibitory Dose50)” value with D3/D2 receptor (male Wistar rats) is 0.64 mg/kg, p.o.

Take `CCCN1CCO[C@@H]2c3cc(O)ccc3OC[C@H]21` [PD128,907, reference compound]: the “Effect of PD 128,907 on body temperature” value with D3/D2 receptor (in the presence of the vehicle) is given as “brings about hypothermia”.
